Experimental data taken from the supplement of paper PMC11451515.

Legend:
Test in all cases: AUC of viability dose-response curve (% viability x log10 dose units); higher = less sensitive
Settings in all cases: 48 h
SEM cells = test system: SEM cells
In short: (§1)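 Over 48 h at 37°C, leukemia cells in 1536-well plates (500 or 1000 cells/well), adapted to each medium, received library compounds in DMSO at 11 threefold doses from 47 μM to 0.79 nM. CellTiter-Glo One luminescence, normalised per plate to DMSO and cell-free wells, was fitted by a four-parameter log-logistic function of log10 dose. The area under the curve was then integrated by trapezoidal rule, after scaling curves above full viability and removing those that failed quality control.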

NOMO1 = test system: NOMO1
In short: as §1

P12-Ichikawa = test system: P12-Ichikawa
In short: as §1

[1] = RPMI 5 mM glucose + 10% dialyzed FBS

Compound	AUC of viability dose-response curve (SEM cells; HPLM + 10% dialyzed FBS)	AUC of viability dose-response curve (SEM cells; RPMI 5 mM glucose + 10% FBS)	AUC of viability dose-response curve (SEM cells; [1])	AUC of viability dose-response curve (NOMO1; HPLM + 10% dialyzed FBS)	AUC of viability dose-response curve (NOMO1; RPMI 5 mM glucose + 10% FBS)	AUC of viability dose-response curve (NOMO1; [1])	AUC of viability dose-response curve (P12-Ichikawa; HPLM + 10% dialyzed FBS)	AUC of viability dose-response curve (P12-Ichikawa; RPMI 5 mM glucose + 10% FBS)	AUC of viability dose-response curve (P12-Ichikawa; [1])
Cc1ccc(C)c(OCCCC(C)(C)C(=O)O)c1	442	456	453	457	449	447	458	429	413
CN(C)Cc1cccc(N/C(=C2\C(=O)Nc3cc(C(=O)N(C)C)ccc32)c2ccccc2)c1	420	394	411	418	433	444	455	453	458
COc1ccc(CC2SC(=O)NC2=O)cc1C(=O)NCc1ccc(C(F)(F)F)cc1 (stereo unspecified)	381	439	393	416	415	427	430	396	361
NCC/1=C/NC(=S)N1[C@H]2CCC3=C(F)C=C(F)C=C3C2	458	453	456	395	470	466	464	463	462
CC(=O)OCC(CCn1cnc2cnc(N)nc21)COC(C)=O	445	434	440	454	464	462	470	470	465
CC1(C)CCC(=C(\C1)C2=CC=C(Cl)C=C2)/CN3CCN(CC3)C4=CC(=C(C=C4)C(=O)N[S+]([O-])(=O)C5=CC=C(NCC6CCOCC6)C(=C5)[N+]([O-])=O)OC7=CN=C8[NH]C=CC8=C7	186	198	175	355	347	290	436	436	449
CN1CCC(=C2c3ccccc3CCc3sccc32)CC1	453	459	464	460	477	466	472	471	465
CCCC[N+]1(C)[C@@H]2CC(OC(=O)[C@H](CO)c3ccccc3)C[C@H]1[C@@H]1O[C@@H]12 (stereo partly specified)	462	471	475	420	431	450	452	450	460
CC=CC1=C(C(=O)O)N2C(=O)[C@@H](NC(=O)[C@H](N)c3ccc(O)cc3)[C@H]2SC1.O	395	460	447	370	342	376	415	416	429
Cc1cc(-c2ccc(CC(=O)Nc3ccc(-c4cccnc4)cc3)cc2)ccn1	392	418	413	380	420	413	439	447	438
CN1CCN(c2cc(C(=O)Nc3ccc4c(c3)-c3c(c(C(N)=O)nn3-c3ccc(F)cc3)CC4)c(Cl)cn2)CC1	444	360	449	442	449	451	448	453	451
Clc1ccc(C(Cn2ccnc2)OCc2ccc(Sc3ccccc3)cc2)c(Cl)c1 (stereo unspecified)	416	445	438	441	450	453	453	453	455
CCCCCCCN(CC)CCCC(O)c1ccc(NS(C)(=O)=O)cc1.CCCCCCCN(CC)CCCC(O)c1ccc(NS(C)(=O)=O)cc1.O=C(O)/C=C/C(=O)O (stereo unspecified)	446	421	443	471	463	464	460	457	461
Oc1ccc(-c2nc(-c3ccncc3)c(-c3ccc(F)cc3)[nH]2)cc1	289	251	247	366	412	420	388	427	410
CN1C(=O)C(=C/2N(C(=O)N(C3CC3)C(=O)C2=C1/NC4=CC=C(I)C=C4F)C5=CC=CC(=C5)NC(C)=O)\C	325	323	318	249	255	255	354	340	355
NC/1=N/C(=O)C2=C([NH]C=C2CCC3=CC=C(C=C3)C(=O)N[C@@H](CCC(O)=O)C(O)=O)N1	355	444	371	358	446	398	372	408	409
CCC[S+](=O)([O-])Nc1ccc(F)c(C(=O)c2c[nH]c3ncc(-c4ccc(Cl)cc4)cc23)c1F	470	474	464	445	477	461	455	452	446

Compound	AUC of viability dose-response curve (SEM cells; HPLM + 10% dialyzed FBS)	AUC of viability dose-response curve (SEM cells; RPMI 5 mM glucose + 10% FBS)	AUC of viability dose-response curve (SEM cells; [1])	AUC of viability dose-response curve (NOMO1; HPLM + 10% dialyzed FBS)	AUC of viability dose-response curve (NOMO1; RPMI 5 mM glucose + 10% FBS)	AUC of viability dose-response curve (NOMO1; [1])	AUC of viability dose-response curve (P12-Ichikawa; HPLM + 10% dialyzed FBS)	AUC of viability dose-response curve (P12-Ichikawa; RPMI 5 mM glucose + 10% FBS)	AUC of viability dose-response curve (P12-Ichikawa; [1])
Oc1ccc(C2CNCCc3c2cc(O)c(O)c3Cl)cc1 (stereo unspecified)	441	426	438	449	425	454	453	456	427
CCCCc1oc2ccccc2c1C(=O)c1cc(I)c(OCCN(CC)CC)c(I)c1	458	465	454	442	450	457	451	448	463
CC(=O)[C@H]1CC[C@H]2[C@@H]3C/C=C4/C[C@@H](O)CC[C@]4(C)[C@H]3CC[C@]12C	455	470	460	463	472	462	462	461	463
O=C1C(CCC(O)c2ccc(F)cc2)C(c2ccc(O)cc2)N1c1ccc(F)cc1 (stereo unspecified)	477	470	466	461	435	469	472	472	465
Cc1nc(N)sc1-c1ccnc(Nc2ccc(N3CCOCC3)cc2)n1	382	368	359	447	447	432	389	392	399
COC1=CC(=C2C(=O)N(COC/3=C/C(=O)N4\C=C/C=C(OCCN5CCCCC5)\C4=N3)[S+]([O-])(=O)C2=C1)C(C)C	476	452	436	460	463	471	477	460	470
CC(C)N(CCCNC(=O)Nc1ccc(C(C)(C)C)cc1)C[C@H]1O[C@@H](n2cc(Br)c3c(N)ncnc32)[C@H](O)[C@@H]1O	433	434	397	433	397	398	409	405	395
NC(=O)c1c(OCc2c(F)cc(Br)cc2F)nsc1NC(=O)NCCCCN1CCCC1	415	397	435	370	450	421	430	445	436
Cc1n[nH]c2ccc(-c3cncc(OC[C@@H](N)Cc4c[nH]c5ccccc45)c3)cc12	245	286	265	270	310	280	309	294	290
N[C@@H](Cc1cc(I)c(Oc2cc(I)c(O)c(I)c2)c(I)c1)C(=O)O	463	454	438	456	473	429	445	460	468
CNC(=O)c1cc(COc2nnc(Nc3ccc(Cl)cc3)c3ccoc23)ccn1	452	446	436	449	446	452	440	458	440
Cc1ccc(Nc2nccc(N(C)c3ccc4c(C)n(C)nc4c3)n2)cc1[S+](N)(=O)[O-]	400	371	388	462	464	476	450	444	450
COc1c(C)c2c(c(O)c1C/C=C(\C)CCC(=O)OCCN1CCOCC1)C(=O)OC2	405	396	427	402	412	408	406	393	400
CNC(=O)c1cc(Oc2ccc(NC(=O)Nc3ccc(Cl)c(C(F)(F)F)c3)c(F)c2)ccn1	296	314	275	444	438	440	422	422	427
CCNC(=O)c1noc(-c2cc(C(C)C)c(O)cc2O)c1-c1ccc(CN2CCOCC2)cc1	225	224	232	253	240	248	333	302	312
Cc1ccc([S+](=O)([O-])NC(=O)NN2CC3CCCC3C2)cc1 (stereo unspecified)	369	334	337	433	436	439	388	378	371
O=C(c1ccc(C(=O)N2CCC(N3CCCC3)CC2)c(Nc2ccccc2)c1)N1CCC(N2CCCC2)CC1	443	461	462	462	452	458	468	466	465
